For assay [1], the system named is mouse hair follicles. The conditions noted are these: cited from earlier work.
Assay [2] deals with hair follicle keratinocytes. In words: Immunofluorescence staining of cultured hair follicles for Ki67 and active caspase 3. The class given is cell-based, human. The procedure: Immunostaining: Immunofluorescence analysis with anti-Ki67 and anti-Caspase-3 was performed on cryosections of cultured hair follicles or whole mount hair follicles fixed in 4% PFA. Images were photographed with Leica fluorescence microscope.

Assay [3] relates to human hair follicles. In words: Hair follicle organ (explant) culture, growth over seven days. The class given is cell-based. The source says:
Tissue: Scalp was obtained from normally discarded human skin samples from CHTN and from men and women undergoing hair transplantation (IRB exempted study Protocol #818053). Hair follicle organ culture: Hair follicles were microdissected from discarded tissues from hair transplant patients and cultured for seven days as described by Philpott et al. (J. Dermatol. Sci. Suppl: S55-72. (1994)) in the presence or absence of PGD2 and/or DP-2 antagonist, with a change of culture medium every two days. Hair follicles were photographed at the beginning and end of the culture period. Hair follicle growth was measured from the photographs using Image J software.

For assay [4], the system named is human hair follicles. The conditions noted are these: cited from earlier work.
For assay [5], the system named is C57BL mice. In words: Topical application to depilated back skin of mice, hair cycle stage and hair length. It counts as in vivo, mouse. How it is done: Animal studies: The back skins of C57BL mice at 6-7 week were depilated. DP-2 antagonists were dissolved in 95% EtOH/2% Glycerol/3% PEG. 100 μL of each compound was spread on the shaved back skin once daily for 2 weeks starting from day 8 post depilation. At day 22 post depilation hair shafts were plucked for hair length measurement and skins were harvested for histological assessment of hair cycle stages.

Where [6] appears, read: topical once per day for two weeks, day 22 post depilation.

With `CCCCC[C@H](O)/C=C/[C@H]1C(=O)C[C@H](O)[C@@H]1C/C=C\CCCC(=O)O` [PGD2, prostaglandin D2], the hair growth result in assay [1] and in assay [4] was “inhibit hair growth” in each case. The “apoptosis of hair follicle keratinocytes (active caspase 3)” value in assay [2] was “promoted apoptosis”. Also, the “proliferation of hair follicle keratinocytes (Ki67)” value in assay [2] is reported as “suppressed proliferation”. The “patients whose hair follicles exhibited PGD2-mediated growth inhibition” value in assay [3] (Group 1, of 35 patients tested) worked out at 21; in assay [3] (Group 2, of 65 patients tested), 31; in assay [3] (Groups 1 and 2 combined, 100 samples) it was 52. Also, in assay [3] (PGD2 10 μM added to culture medium, 7 days), the “growth of human hair follicles in explant culture” value is given as “severely inhibited”. For the same compound, the “inhibitory effect on hair growth, dose dependence” value in assay [3] (explant culture, FIG. 1B) was “dose-dependent manner”.

`CCN(Cc1cc(C(F)(F)F)ccc1-c1cc(CC(=O)O)ccc1OC)C(=O)NCc1ccccc1` [AM211]: in assay [5] (topical once per day for two weeks from day 8 post depilation, harvested day 22), the “hair follicles entering catagen (hair cycle stage)” value is given as “dose-dependent delay in hair follicles entering catagen”. Further, in assay [5] (setting [6]), the hair shaft length entry was “longer hair shaft” and the “skin area with hair follicles continuing to grow” value was “larger area with hair follicles continuing to grow”. In assay [3] (99.5% pure preparation of AM211, FIG. 3B), the “anti-PGD2 activity at high doses” value is “sustained anti-PGD2 activity”. Also, the “rescue of hair follicles from growth inhibition by PGD2” value in assay [3] (AM211 at 10 nM, PGD2 10 μM, 7 days) is given as “rescued hair follicles from the inhibition by PGD2”. Besides, the “anti-PGD2 effect at high doses” value in assay [3] (AM211 preparation purified to 95% homogeneity, FIG. 3A) is listed as “reduction in anti-PGD2 effect”.

On to `CCCCC/C=C/C=C1/C(=O)C=C[C@@H]1C/C=C\CCCC(=O)O` [15-dPGJ2, 15-deoxy-D12,14-prostaglandin J2], for which the hair growth result in assay [1] and in assay [4] was “inhibit hair growth” each time.

(Values after US12201625B2, “Single nucleotide polymorphic alleles of human DP-2 gene for detection of susceptibility to hair growth inhibition by PGD2” (THE TRUSTEES OF THE UNIVERSITY OF PENNSYLVANIA, priority 2015, dated 2025).)
